Entries after “also recorded” stand apart in the source; their conditions may differ. Where two headings read alike, the source gives them in different places.
Tests used:
[1] = Approximate solubility, visually estimated by solvent aliquot addition; type: physicochemical; conditions: ambient temperature; for solubility: thermodynamic from solid
Protocol: A lot of the compound of formula (I) containing a mixture of Forms A and B was used for this study. Measured aliquots of a variety of solvents were added to weighed amounts of the material with sonication until the solution appeared clear or the maximum volume of the vial was reached. Solubility was calculated based on the total solvent used to give a solution. […] Values are rounded to the nearest whole number. […] If dissolution occurred as determined by the visual assessment after the addition of the first aliquot, the value is reported as “>”.

[2] = Dynamic vapor sorption (DVS); type: physicochemical
Protocol: Automated vapor sorption (VS) data were collected on a Surface Measurement System DVS Intrinsic instrument. Samples were not dried prior to analysis. Sorption and desorption data were collected over a range from 5% to 95% RH at 10% RH increments under a nitrogen purge. The equilibrium criterion used for analysis was less than 0.0100% weight change in 5 minutes with a maximum equilibration time of 3 hours. Data were not corrected for the initial moisture content of the samples. Post-analysis sample was submitted for XRPD analysis.

[3] = Physical stability of crystalline forms (XRPD after stress); type: physicochemical
Protocol: Physical stability of Form A was investigated.
Physical stability of Form F was investigated.
Physical stability of Form B was investigated.
Physical stability of Form C was investigated.
Because the solids of Form H were originally isolated damp with excess MeOH (see Example 7), an attempt to remove the excess solvent under vacuum (i.e., room temperature for 2 days) was performed.

[4] = Binary competitive interconversion slurry experiments; type: physicochemical; conditions: between room temperature and 50° C.
Protocol: Alternatively, interconversion experiments were performed to determine the thermodynamic relationship between polymorphs. […] Clarendon Press, Oxford, 2006; and Polymorphism in Pharmaceutical Solids. Brittain, Harry G. ed. Marcek Dekker, Inc. New York. 1999]. […] The choice of solvent affects the kinetics of polymorph conversion and not the thermodynamic relationship between polymorphic forms [Gu, C H., Young, V. Jr., Grant, D J. J. Pharm. Sci. 2001, 90 (11): 1878-1890].
Slurries were prepared at ambient and 50° C. using binary mixtures of Forms A/F, A/E, and E/F. Saturated solutions of the compound of formula (I) were generated in EtOAc or ACN at RT or 50° C. The solutions were filtered and approximately equivalent quantities of two of the polymorphs were added to the solutions. The samples were slurried for several days at the given temperature and the solids were collected by positive pressure filtration, or centrifugation/decantation. The solids were harvested and analyzed by an XRPD.

[5] = Physical stability of crystalline forms (XRPD after stress); type: physicochemical; conditions: higher temperature (e.g., 178° C.)
[6] = clinical trials, systemic MEK inhibitor; cited from earlier work
[7] = 90% RH at ambient temperature over 7 days

For `Cn1c(Nc2ccc(I)cc2F)c(C(=O)NOCCO)c2cccnc21` [Compound of Formula (I)], the solubility ([1]; aqueous with cosolvent or surfactant or cyclodextrin, 1:1 THF/H2O (v/v) (aw = 1.04), lot containing mixture of Forms A and B, read-out: Solubility) was 11000 µg/mL, the solubility ([1]; aqueous with cosolvent or surfactant or cyclodextrin, 3:1 acetone/H2O (v/v) (aw = 0.85), lot containing mixture of Forms A and B, read-out: Solubility) was 5000 µg/mL and the Solubility term ([1]; in heptane, H2O, and toluene) was “low solubility”. For the same compound, the solubility ([1]; organic solvent or mixture, ACN, lot containing mixture of Forms A and B, read-out: Solubility) was 2000 µg/mL, the solubility ([1]; organic solvent or mixture, DCM, lot containing mixture of Forms A and B, read-out: Solubility) was 6000 µg/mL and the solubility ([1]; organic solvent or mixture, EtOAc, lot containing mixture of Forms A and B, read-out: Solubility) was 3000 µg/mL. The solubility ([1]; organic solvent or mixture, EtOH, lot containing mixture of Forms A and B, read-out: Solubility) was 3000 µg/mL, the solubility ([1]; organic solvent or mixture, MeOH, lot containing mixture of Forms A and B, read-out: Solubility) was 11000 µg/mL and the solubility ([1]; organic solvent or mixture, THF, lot containing mixture of Forms A and B, read-out: Solubility) was 29000 µg/mL. It also gave a solubility ([1]; organic solvent or mixture, acetone, lot containing mixture of Forms A and B, read-out: Solubility) of 8000 µg/mL, a solubility ([1]; organic solvent or mixture, heptane, lot containing mixture of Forms A and B, read-out: Solubility) of under 1000 µg/mL and a solubility ([1]; organic solvent or mixture, in acetone, ACN, DCM, EtOAc, EtOH, MeOH, 3:1 v/v acetone/H2O, and 1:1 v/v THF/H2O, read-out: Solubility term) of 1000 to 20000 µg/mL. For the same compound, the solubility ([1]; organic solvent or mixture, toluene, lot containing mixture of Forms A and B, read-out: Solubility) was under 1000 µg/mL and the solubility ([1]; water, H2O, lot containing mixture of Forms A and B, read-out: Solubility) was under 1000 µg/mL.

With `Cn1c(Nc2ccc(I)cc2F)c(C(=O)NOCCO)c2cccnc21` [Form A] the Hygroscopicity term ([2]; 5-95% RH) was “limited hygroscopicity”, the “post-DVS XRPD form” value ([2]; solid after DVS cycle) was “Form A” and the Physical stability [3, 7] was “stable”. For the same compound, the Physical stability ([3]; one (1) day at ambient temperature under vacuum) was “stable” and the “Relative thermodynamic stability of anhydrous forms” value (“Relative thermodynamic stability” below) [4] was “most thermodynamically stable form; also recorded: more stable relative to Form E or F”.

With `Cn1c(Nc2ccc(I)cc2F)c(C(=O)NOCCO)c2cccnc21` [Form B] the Physical stability ([3]; exposure to 45° C. (elevated temperature) under vacuum) was “disordered; also recorded: slightly disordered XRPD pattern with additional unidentified peaks”, the Physical stability ([3]; under vacuum at ambient temperature over 2 days) was “stable” and the “Form conversion by in situ variable temperature XRPD (vtXRPD)” value [5] was “converts/crystallizes to anhydrous Form E”.

In the case of `Cn1c(Nc2ccc(I)cc2F)c(C(=O)NOCCO)c2cccnc21` [Form C], the Physical stability ([3]; about 42° C. for one day or about 45° C. for three days, under vacuum) is reported as “slightly disordered”.

In the case of `Cn1c(Nc2ccc(I)cc2F)c(C(=O)NOCCO)c2cccnc21` [Form E], the “Relative thermodynamic stability” value [4] is reported as “more thermodynamically stable than Form F but less stable than Form A; also recorded: more stable relative to Form F”.

For `Cn1c(Nc2ccc(I)cc2F)c(C(=O)NOCCO)c2cccnc21` [Form F], the Physical stability [3, 7] was “stable”, the Physical stability ([3]; under vacuum at room temperature for 5 days) was “stable” and the “Relative thermodynamic stability” value [4] was “least thermodynamically stable form”.

In the case of `Cn1c(Nc2ccc(I)cc2F)c(C(=O)NOCCO)c2cccnc21` [Form H], the Physical stability ([3]; under vacuum, room temperature for 2 days, damp solids with excess MeOH) is reported as “disordered mixture of Form H and Form A”.

In the case of `O=C(NOC[C@H](O)CO)c1ccc(F)c(F)c1Nc1ccc(I)cc1F` [PD0325901], the Side effects [6] is given as “one or more neurological side effects associated with ataxia, confusion, and syncope; also recorded: neurological side effects associated with ataxia, confusion, and syncope”.
